Measured values taken from US8691840B2, “N-biarylamides” (Bayer Intellectual Property GmbH, priority 2003, dated 2014).
Where a name gives a salt, the structure may show the parent alone.

Target: α7 nAChR (Rattus norvegicus (Rat), UniProt Q05941)
Test: [3H]-methyllycaconitine binding assay, rat brain membranes
Details: inhibition of [3H]-methyllycaconitine binding to rat brain membranes; Ki=IC50/(1+L/KD)
Protocol: 1. Determination of the Affinity of Test Substances for α7 nAChR by Inhibition of [^3H]-methyllycaconitine Binding to Rat Brain Membranes
The [^3H]-methyllycaconitine binding assay is a modification of the method described by Davies et al. (Neuropharmacol. 1999, 38, 679-690).
Rat brain tissue (hippocampus or whole brain) is homogenized in homogenization buffer (10% w/v) (0.32 M sucrose, 1 mM EDTA, 0.1 mM phenylmethylsulfonyl fluoride (PMSF), 0.01% (w/v) NaN3, pH 7.4, 4° C.) at 600 rpm in a glass homogenizer. The homogenate is centrifuged (1000×g, 4° C., 10 min) and the supernatant is removed. The pellet is resuspended (20% w/v) and the suspension is centrifuged (1000×g, 4° C., 10 min) The two supernatants are combined and centrifuged (15 000×g, 4° C., 30 min). This pellet is referred to as the P2 fraction.
The P2 pellet is washed twice with binding buffer (50 mM Tris-HCl, 1 mM MgCl2, 120 mM NaCl, 5 mM KCl, 2 mM CaCl2, pH 7.4), and centrifuged (15 000×g, 4° C., 30 min).
The P2 membranes are resuspended in binding buffer and incubated in a volume of 250 μl (amount of membrane protein 0.1-0.5 mg) in the presence of 1-5 nM [^3H]-methyllycaconitine, 0.1% (w/v) BSA (bovine serum albumin) and various concentrations of the test substance at 21° C. for 2.5 h. The non-specific binding is determined by incubation in the presence of 1 μM […]-bungarotoxin or 100 μM nicotine or 10 μM MLA (methyllycaconitine).
The incubation is stopped by adding 4 ml of PBS (20 mM Na2HPO4, 5 mM KH2PO4, 150 mM NaCl, pH 7.4, 4° C.) and filtering through type A/E glass fiber filters (Gelman Sciences) which have previously been placed in 0.3% (v/v) polyethyleneimine (PEI) for 3 h. The filters are washed twice with 4 ml of PBS (4° C.), and the bound radioactivity is determined by scintillation measurement. All the assays are carried out in triplicate. The dissociation constant Ki of the test substance was determined from the IC50 of the compounds (concentration of the test substance at which 50% of the ligand bound to the receptor are displaced), the dissociation constant KD and the concentration L of [^3H]methyllycaconitine (Ki=IC50/(1+L/KD)).

Sequence of α7 nAChR (Q05941 23-502 limits assumed): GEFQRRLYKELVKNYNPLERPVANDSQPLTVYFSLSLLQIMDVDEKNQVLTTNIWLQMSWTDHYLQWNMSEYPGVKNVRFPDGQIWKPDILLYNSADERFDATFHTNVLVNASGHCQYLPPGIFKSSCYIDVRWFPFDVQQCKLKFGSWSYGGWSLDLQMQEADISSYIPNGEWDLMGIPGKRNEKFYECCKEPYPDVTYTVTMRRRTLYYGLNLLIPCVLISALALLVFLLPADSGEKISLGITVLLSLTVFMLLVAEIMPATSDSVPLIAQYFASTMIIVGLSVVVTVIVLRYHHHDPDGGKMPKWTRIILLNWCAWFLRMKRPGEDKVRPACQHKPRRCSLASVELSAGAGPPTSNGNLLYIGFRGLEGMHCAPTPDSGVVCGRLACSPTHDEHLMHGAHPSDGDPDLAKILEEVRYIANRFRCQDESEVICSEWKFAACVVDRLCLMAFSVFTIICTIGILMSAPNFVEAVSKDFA

Structure (SMILES) | Ki
CS(=O)(=O)Nc1ccc(-c2ccc(NC(=O)[C@H]3CN4CCC3CC4)cc2)cc1 [Example 2, (3R)-N-{4′-[(Methylsulfonyl)amino]biphenyl-4-yl}quinuclidine-3-carboxamide hydrochloride] | 2 nM
O=C(Nc1ccc(-c2ccc(NS(=O)(=O)c3ccccc3)cc2)cc1)[C@H]1CN2CCC1CC2 [Example 5, (3R)—N-{4′-[(Phenylsulfonyl)amino]biphenyl-4-yl}quinuclidine-3-carboxamide hydrochloride] | < 1 nM
NS(=O)(=O)c1ccc(-c2ccc(NC(=O)[C@H]3CN4CCC3CC4)cc2)cc1 [Example 7, (3R)—N-[4′-(Aminosulfonyl)biphenyl-4-yl]quinuclidine-3-carboxamide hydrochloride] | < 1 nM
O=C(Nc1ccc(-c2ccc(NC(=O)[C@H]3CN4CCC3CC4)cc2)cc1)NC1CCCC1 [Example 11, (3R)—N-(4′-{[(Cyclopentylamino)carbonyl]amino}biphenyl-4-yl)quinuclidine-3-carboxamide hydrochloride] | 16 nM
O=C(Nc1ccc(-c2ccc(NC(=O)[C@H]3CN4CCC3CC4)cc2)cc1)c1cccc(F)c1 [Example 15, (3R)—N-{4′-[(3-Fluorobenzoyl)amino]biphenyl-4-yl}quinuclidine-3-carboxamide hydrochloride] | 27 nM
